Reference: patent EP2905024A1 (Institut Quimic De Sarriá Cets, Fundació Privada, priority 2014, dated 2015)

Tests used:
[1] = system: subgenomic HCV genotype 1b replicon, I389/NS3-3'/ LucUbiNeo-ET; assay: in vitro antiviral activity: luciferase assay in LucUbiNeo-ET HCV replicon cells; assay type: cell-based; conditions: Hepatitis C virus, 48 h, 2 days of incubation, luciferase readout, mean of duplicates
Description: (§1) To analyze the antiviral activity of the compounds, we used a stable cell line, LucUbiNeo-ET, that contains a subgenomic HCV genotype 1b replicon, I389/NS3-3'/ LucUbiNeo-ET, that express luciferase constitutively (Krieger et al, JVI 2001; 75:4614; Frese et al., JGV 2003; 84: 1253-1259). To evaluate the cellular toxicity, we use other cell line, Huh-7/Lunet (Friebe et al., JVI 2005; 79: 380-392), that originally carried a selectable luciferase HCV 1b replicon and was cured by treatment with an HCV-specific inhibitor. These cells are characterized by high permissiveness for HCV RNA replication. LucUbiNeo-ET cell line was cultured at 37°C in a humidified atmosphere with 5% CO2 in Dulbecco's modified Eagle medium (D-MEM) supplemented with high glucose concentration (4.5g/l) (Invitrogen), 10% (vol/vol) heat-inactivated fetal bovine serum (Hyclone, Cultek), 2mM L-Glutamine (Sigma-aldrich), 1mM sodium pyruvate (Sigma-aldrich), 1% MEM NEEA (Sigma-aldrich), and 0.5 mg/ml of Geneticin (G418) (Gibco, Invitrogen). Cured or Huh-7/Lunet cell line was maintained at the same conditions as described above without the addition of Geneticin.
(§2) Antiviral activity was carried out in white-clear bottom 96-well plates, and cytotoxicity assays were performed in clear 96-well plates. Cells were seeded at a density of 10^4/well in 100ul D-MEM without selection of antibiotics. After 24h, nine fivefold serial dilution of compounds, with 3 replicates at each dilution, were prepared in D-MEM and added to the appropriate wells, yielding concentrations of 125 to 0,00032 ug/ml in a final volume of 100 ul of D-MEM. Following 2 days of incubation, we determined the antiviral activity (EC50) by quantifying the luciferase with the Luciferase Bright Glo assay (Promega). Briefly, LucUbiNeo-ET cells were harvested with the addition of 100 ul of luciferase per well, and after 2 minutes of shaking, the light was read in a Luminometer Fluoroskan Ascent FL. Toxicity (CC50) was analysed in the Lunet/HuH7 cells by the addition of 10 ul of MTT (3-(4,5-dimethylthiazol-2-yl)-2,5-diphenyltetrazolium bromide) per well. After 4h of incubation at 37°C in a humidified atmosphere with 5% CO2, the amount of formazan produced was quantified spectrophotometrically at 550/620 nm [C. Pannecouque et al, Nature protocol 2008; 3 (3): 427-434]. The EC50 and CC50 values were calculated for each compound. These assays were done in duplicate and the results shown in Table 1 represent the mean value of these duplicates.

cytotoxicity assay (MTT) = assay type: cell-based; conditions: human, Lunet/HuH7 cells, 2 days of incubation, mean of duplicates; for CC50 at 48 h: huh-7/lunet cells; for CC50 at 2 days: Huh-7/Lunet cells (cured HCV replicon cells)
Description: as §1, §2

SMILES: Cn1c(=O)c(-c2c(Cl)cccc2Cl)cc2c(N)nc(N)nc21 [Example 52]
- EC50 [1]: 5 to 22 µM
- CC50 at 48 h (cytotoxicity assay (MTT)): ≥ 25 µM

SMILES: Nc1nc(Nc2ccccc2)nc2c1cc(-c1c(Cl)cccc1Cl)c(=O)n2CCO [Example 59, 4-amino-6-(2,6-dichlorophenyl)-8-(2-hydroxyethyl)-2-(phenylamino) pyrido[2,3-d]pyrimidine-7(8H)-one]
- EC50 [1]: 1 to 5 µM
- CC50 at 2 days (cytotoxicity assay (MTT)): ≥ 25 µM

SMILES: Cn1c(=O)c(-c2c(Cl)cccc2Cl)cc2c(N)nc(Nc3ccc(Br)cc3)nc21 [Example 60, 4-amino-2-((4-bromophenyl)amino)-6-(2,6-dichlorophenyl)-8-methylpyrido[2,3-d]pyrimidine-7(8H)-one]
- EC50 [1]: < 1 µM
- CC50 at 2 days (cytotoxicity assay (MTT)): < 10 µM

SMILES: CCCOCCNc1nc(N)nc2[nH]c(=O)c(-c3ccc(F)cc3)cc12 [Example 24, 2-amino-6-(4-fluorophenyl)-4-((2-propoxyethyl)amino) pyrido[2,3-d]pyrimidine-7(8H)-one]
- EC50 [1]: 1 to 5 µM
- CC50 at 2 days (cytotoxicity assay (MTT)): ≥ 25 µM

SMILES: CCCOCCOc1nc(N)nc2c1cc(-c1c(Cl)cccc1Cl)c(=O)n2C [Example 44, 2-amino-6-(2,6-dichlorophenyl)-8-methyl-4-(2-propoxyethoxy)pyrido[2,3-d]pyrimidine-7(8H)-one]
- EC50 [1]: 5 to 22 µM
- CC50 at 2 days (cytotoxicity assay (MTT)): ≥ 25 µM

SMILES: CCCOCCNc1nc(Oc2ccccc2)nc2[nH]c(=O)c(-c3ccc(F)cc3)cc12 [Example 32, 6-(4-fluorophenyl)-2-phenoxy-4-((2-propoxyethyl)amino) pyrido[2,3-d]pyrimidine-7(8H)-one]
- EC50 [1]: 1 to 5 µM
- CC50 at 2 days (cytotoxicity assay (MTT)): ≥ 25 µM

SMILES: CCCCCNc1nc(N)nc2c1cc(-c1ccc(F)cc1)c(=O)n2C [Example 42, 2-amino-6-(4-fluorophenyl)-8-methyl-4-(pentylamino) pyrido[2,3-d]pyrimidine-7(8H)-one]
- EC50 [1]: 5 to 22 µM
- CC50 at 2 days (cytotoxicity assay (MTT)): 10 to 25 µM

SMILES: Cn1c(=O)c(-c2c(F)cccc2F)cc2c(N)nc(Nc3ccccc3)nc21 [Example 47, 4-amino-6-(2,6-difluorophenyl)-8-methyl-2-(phenylamino)pyrido[2,3-d]pyrimidine-7(8H)-one]
- EC50 [1]: < 1 µM
- CC50 at 2 days (cytotoxicity assay (MTT)): 10 to 25 µM

SMILES: Cn1c(=O)c(-c2c(F)cccc2C(F)(F)F)cc2c(N)nc(Nc3ccccc3)nc21 [Example 51, 4-amino-6-(2-fluoro-6-(trifluoromethyl)phenyl)-8-methyl-2-(phenylamino) pyrido[2,3-d]pyrimidine-7(8H)-one]
- EC50 [1]: 1 to 5 µM
- CC50 at 2 days (cytotoxicity assay (MTT)): < 10 µM

SMILES: O=C1Nc2nc(Nc3ccccc3)nc(On3nnc4ccccc43)c2CC1c1ccc(Cl)cc1Cl (stereo not drawn) [Example 6, 4-((1H-benzo[d][1,2,3]triazol-1-yl)oxy)-6-(2,4-dichlorophenyl)-2-(phenylamino)-5,6-dihydropyrido[2,3-d]pyrimidine-7(8H)-one]
- EC50 [1]: 1 to 5 µM
- CC50 at 2 days (cytotoxicity assay (MTT)): < 10 µM

SMILES: CCn1c(=O)c(-c2c(Cl)cccc2Cl)cc2c(N)nc(Nc3ccccc3)nc21 [Example 54, 4-amino-6-(2,6-dichlorophenyl)-8-ethyl-2-(phenylamino)pyrido[2,3-d] pyrimidine-7(8H)-one]
- EC50 [1]: 1 to 5 µM
- CC50 at 2 days (cytotoxicity assay (MTT)): ≥ 25 µM

SMILES: CCCn1c(=O)c(-c2c(Cl)cccc2Cl)cc2c(N)nc(Nc3ccccc3)nc21 [Example 55, 4-amino-6-(2,6-dichlorophenyl)-2-(phenylamino)-8-propylpyrido[2,3-d] pyrimidine-7(8H)-one]
- EC50 [1]: 1 to 5 µM
- CC50 at 2 days (cytotoxicity assay (MTT)): ≥ 25 µM

SMILES: Nc1nc(Nc2ccccc2)nc2[nH]c(=O)c(-c3ccccc3)cc12 [Example 37, 4-amino-6-phenyl-2-(phenylamino)pyrido[2,3-d]pyrimidine-7(8H)-one]
- EC50 [1]: < 1 µM
- CC50 at 2 days (cytotoxicity assay (MTT)): 10 to 25 µM

SMILES: CCCOCCNc1nc(Nc2ccccc2)nc2c1CC(c1c(Cl)cccc1Cl)C(=O)N2 (stereo not drawn) [Example 11, 6-(2,6-dichlorophenyl)-2-(phenylamino)-4-((2-propoxyethyl)amino)-5,6-dihydropyrido[2,3-d]pyrimidine-7(8H)-one]
- EC50 [1]: 5 to 22 µM
- CC50 at 2 days (cytotoxicity assay (MTT)): ≥ 25 µM

SMILES: O=C1Nc2nc(Nc3ccccc3)nc(On3nnc4ccccc43)c2CC1c1ccc(F)cc1 (stereo not drawn) [Example 4]
- EC50 [1]: 1 to 5 µM
- CC50 at 48 h (cytotoxicity assay (MTT)): 10 to 25 µM

SMILES: Cn1c(=O)c(-c2c(Cl)cccc2Cl)cc2cnc(Nc3ccccc3)nc21 [Example 53, 6-(2,6-dichlorophenyl)-8-methyl-2-(phenylamino)pyrido[2,3-d]pyrimidine-7(8H)-one]
- EC50 [1]: < 1 µM
- CC50 at 2 days (cytotoxicity assay (MTT)): < 10 µM

SMILES: CCCOCCNc1nc(Nc2ccccc2)nc2c1cc(-c1c(Cl)cccc1Cl)c(=O)n2C [Example 46, 6-(2,6-dichlorophenyl)-8-methyl-2-(phenylamino)-4-((2-propoxyethyl)amino)pyrido[2,3-d]pyrimidine-7(8H)-one]
- EC50 [1]: 5 to 22 µM
- CC50 at 2 days (cytotoxicity assay (MTT)): ≥ 25 µM

SMILES: CCCOCCNc1nc(N)nc2c1cc(-c1ccc(F)cc1)c(=O)n2C [Example 41, 2-amino-6-(4-fluorophenyl)-8-methyl-4-((2-propoxyethyl)amino)pyrido[2,3-d]pyrimidine-7(8H)-one]
- EC50 [1]: 1 to 5 µM
- CC50 at 2 days (cytotoxicity assay (MTT)): ≥ 25 µM

SMILES: O=c1[nH]c2nc(Nc3ccccc3)[nH]c(=O)c2cc1-c1ccc(F)cc1 [Example 29, 6-(4-fluorophenyl)-2-(phenylamino)pyrido[2,3-d]pyrimidine-4,7(3H,8H)-dione]
- EC50 [1]: < 1 µM
- CC50 at 2 days (cytotoxicity assay (MTT)): 10 to 25 µM

SMILES: CC(C)Cn1c(=O)c(-c2c(Cl)cccc2Cl)cc2c(N)nc(Nc3ccccc3)nc21 [Example 57, 4-amino-6-(2,6-dichlorophenyl)-8-isobutyl-2-(phenylamino)pyrido[2,3-d] pyrimidine-7(8H)-one]
- EC50 [1]: < 1 µM
- CC50 at 2 days (cytotoxicity assay (MTT)): ≥ 25 µM

SMILES: O=C1Nc2nc(Oc3ccccc3)nc(On3nnc4ccccc43)c2CC1c1ccc(F)cc1 (stereo not drawn) [Example 3, 4-((1H-benzo[d][1,2,3]triazol-1-yl)oxy)-6-(4-fluorophenyl)-2-phenoxy-3,4,5,6-tetrahydropyrido[2,3-d]pyrimidine-7(8H)-one]
- EC50 [1]: 5 to 22 µM
- CC50 at 48 h (cytotoxicity assay (MTT)): ≥ 25 µM

SMILES: CCCCn1c(=O)c(-c2c(Cl)cccc2Cl)cc2c(N)nc(Nc3ccccc3)nc21 [Example 56, 4-amino-8-butyl-6-(2,6-dichlorophenyl)-2-(phenylamino)pyrido[2,3-d] pyrimidine-7(8H)-one]
- EC50 [1]: 5 to 22 µM
- CC50 at 2 days (cytotoxicity assay (MTT)): ≥ 25 µM

SMILES: Nc1nc(Nc2ccccc2)nc2[nH]c(=O)c(-c3c(F)cccc3F)cc12 [Example 34, 4-amino-6-(2,6-difluorophenyl)-2-(phenylamino)pyrido[2,3-d]pyrimidine-7(8H)-one]
- EC50 [1]: 5 to 22 µM
- CC50 at 2 days (cytotoxicity assay (MTT)): < 10 µM

SMILES: COc1ccc(Nc2nc3[nH]c(=O)c(-c4ccc(F)cc4)cc3c(=O)[nH]2)cc1 [Example 31, 6-(4-fluorophenyl)-2-((4-methoxyphenyl)amino)pyrido[2,3-d]pyrimidine-4,7(3H,8H)-dione]
- EC50 [1]: 5 to 22 µM
- CC50 at 2 days (cytotoxicity assay (MTT)): ≥ 25 µM

SMILES: Cn1c(=O)c(-c2c(Cl)cccc2Cl)cc2c(N)nc(Nc3ccccc3)nc21 [Example 48, 4-amino-6-(2,6-dichlorophenyl)-8-methyl-2-(phenylamino)pyrido[2,3-d]pyrimidine-7(8H)-one]
- EC50 [1]: < 1 µM
- CC50 at 2 days (cytotoxicity assay (MTT)): < 10 µM

SMILES: O=c1[nH]c2nc(Nc3ccccc3)[nH]c(=O)c2cc1-c1ccccc1 [Example 30, 6-phenyl-2-(phenylamino)pyrido[2,3-d]pyrimidine-4,7(3H,8H)-dione]
- EC50 [1]: 5 to 22 µM
- CC50 at 2 days (cytotoxicity assay (MTT)): ≥ 25 µM

SMILES: COCCOc1nc(N)nc2c1CC(c1c(Cl)cccc1Cl)C(=O)N2 (stereo not drawn) [Example 13, 2-amino-6-(2,6-dichlorophenyl)-4-(2-methoxyethoxy)-5,6-dihydropyrido[2,3-d]pyrimidine-7(8H)-one]
- EC50 [1]: 5 to 22 µM
- CC50 at 2 days (cytotoxicity assay (MTT)): ≥ 25 µM

SMILES: Cn1c(=O)c(-c2ccccc2)cc2c(N)nc(Nc3ccccc3)nc21 [Example 50, 4-amino-8-methyl-6-phenyl-2-(phenylamino)pyrido[2,3-d]pyrimidine-7(8H)-one]
- EC50 [1]: < 1 µM
- CC50 at 2 days (cytotoxicity assay (MTT)): 10 to 25 µM

SMILES: Nc1nc(Nc2ccccc2)nc2[nH]c(=O)c(-c3c(Br)cccc3Br)cc12 [Example 36, 4-amino-6-(2,6-dibromophenyl)-2-(phenylamino)pyrido[2,3-d]pyrimidine-7(8H)-one]
- EC50 [1]: 5 to 22 µM
- CC50 at 2 days (cytotoxicity assay (MTT)): ≥ 25 µM

SMILES: CN1CCN(c2ccc(Nc3nc(N)c4cc(-c5c(Cl)cccc5Cl)c(=O)n(C)c4n3)cc2)CC1 [Example 61]
- EC50 [1]: < 1 µM
- CC50 at 2 days (cytotoxicity assay (MTT)): < 10 µM
